System: (CTG.CAG)74
Assay: In vitro transcription of (CTG.CAG)74
Format: biochemical
Procedure: FIG. 8A-B. In vitro transcription of (CTG.CAG)74 (SEQ ID NOS 3-4, respectively). Ligands at different concentrations were incubated with 15 ng linearized plasmids in T7 RNA polymerse mixture at 37° C. After 2 h, the reaction mixture was on a 8% denaturing gel. (a) Transcription gels of ligands at different concentrations (“(CUG)74” is disclosed as SEQ ID NO: 22). (b) Plot of the percentage of transcription inhibition versus ligand concentrations. The error bars represent standard errors of mean of three independent experiments. Untreated at 100 μM is at 0%; ligand 2 at 100 μM is at ˜10%; ligand 7 at 100 μM is at ˜35%; ligand 6 at 100 μM is at ˜80%; ligand 9 at 100 μM is at ˜96%; and ligand 5 at 100 μM is at ˜99%.
(SEQ ID NOS 3-4, respectively) transcription by 5, 6, and 9 in vitro. […] Nonetheless, the additional ammonium groups in these agents might potentially increase their affinity for both CTG DNA and CUG RNA so we returned to examine the potential for inhibition of CTG^exp transcription. The in vitro (CTG.CAG)74 (SEQ ID NOS 3-4, respectively) transcription assays utilized a T7 promoter located in the upstream region of the repeats.
(SEQ ID NOS 3-4, respectively). T7 RNA polymerase-mediated transcription reactions were incubated at 37° C. for 2 h. A 10 μL mixture contained 15 ng of linearized plasmid (CTG)74 (SEQ ID NO: 3) or control plasmid templates, 0.5 mM each rATP, rCTP, rGTP, and rUTP and 0.5 U T7 polymerase (Biolab) in 1×T7 transcription buffer (80 mM Tris pH 8.3, 10 mM MgCl2, 2 mM spermine, 0.1% Triton-X, 10 mM NaCl). Ligand was added with the final concentrations of 0, 1, 10, 50, and 100 μM prior to incubation. Reactions were quenched by adding 8 μL of 8 M Urea and 2 μL of denaturing dye (95% formamide, 5 mM EDTA, 0.025% each xylene cyanol and bromophenol blue) and heating to 95° C. for 5 min. Of this solution, 15 μL was run on a 8% denaturing polyacrylamide gel in 0.5×TBE and stained with EtBr. Bands were quantified using the ImageJ (NIH). The intensity of (CUG)74 (SEQ ID NO: 22) band (ca. 260 nt) was normalized to that from the untreated transcription reaction. […]

**Q.** Which “transcription inhibition of (CTG.CAG)74 at 100 μM” value (100 μM, 2 h, 37° C., T7 RNA polymerase) does the source give for `N=C(NCCCCNc1nc(N)nc(N)n1)c1ccc(C(=N)NCCCCNc2nc(N)nc(N)n2)cc1` [Ligand 2] here?
**A.** ~10%

**Q.** And the “inhibition of (CTG.CAG)74 transcription (qualitative)” value (1-100 μM)?
**A.** negligible effects

Reference: patent publication US9376421B2, “Compounds and methods for myotonic dystrophy therapy” (The Board of Trustees of the University of Illinois, priority 2014, dated 2016)
